The text below walks through data of US12077503B2, “Substituted cyclic amides and their use as herbicides” (FMC CORPORATION, priority 2015, dated 2024).

Read-outs that look alike come from different tables or passages of the source.

Assay type in all cases: in vivo
Test [1] deals with Kochia (Kochia scoparia). Nature of the test: Test A preemergence. The settings on record: Bassia scoparia, pre-emergence, 240 h; for pest or weed control at 125 g/ha: 125 g ai/ha, visual rating after approx. 10 d, 0 to 100 scale where 0 is no effect and 100 is complete control; for pest or weed control at 500 g/ha: 500 g ai/ha. In outline:
(§1)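 Visual injury scores from 0, no effect, to 100, complete control, were assigned versus untreated controls roughly 10 d after treatment in the greenhouse. Test chemicals, formulated with surfactant in a non-phytotoxic solvent, were applied to planted seeds as a preemergence soil spray or postemergence to one- to two-leaf plants 2 to 10 cm tall, in loam–sand soil.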

The subject of test [2] is barnyardgrass (Echinochloa crus-galli). Nature of the test: Test A preemergence. The settings on record: Echinochloa crus-galli, pre-emergence, 240 h; for pest or weed control at 125 g/ha: 125 g ai/ha, visual rating after approx. 10 d, 0 to 100 scale where 0 is no effect and 100 is complete control; for pest or weed control at 500 g/ha: 500 g ai/ha. In outline: as §1
Test [3] concerns giant foxtail (Setaria faberii). Nature of the test: Test A preemergence. As to conditions: Setaria faberi, pre-emergence, 240 h; for pest or weed control at 125 g/ha: 125 g ai/ha, visual rating after approx. 10 d, 0 to 100 scale where 0 is no effect and 100 is complete control; for pest or weed control at 500 g/ha: 500 g ai/ha. In outline: as §1
Test [4] relates to pigweed (Amaranthus retroflexus). Nature of the test: Test A preemergence. The settings on record: Amaranthus retroflexus, pre-emergence, 240 h; for pest or weed control at 125 g/ha: 125 g ai/ha, visual rating after approx. 10 d, 0 to 100 scale where 0 is no effect and 100 is complete control; for pest or weed control at 500 g/ha: 500 g ai/ha.
Test [5] concerns ragweed (common ragweed, Ambrosia elatior). Put plainly: Test A preemergence. The settings on record: Ambrosia artemisiifolia, pre-emergence, 240 h; for pest or weed control at 125 g/ha: 125 g ai/ha, visual rating after approx. 10 d, 0 to 100 scale where 0 is no effect and 100 is complete control; for pest or weed control at 500 g/ha: 500 g ai/ha. In outline: as §1
In test [6] the test system is ryegrass, Italian (Italian ryegrass, Lolium multiflorum). Nature of the test: Test A preemergence. The settings on record: Lolium multiflorum, pre-emergence, 240 h; for pest or weed control at 125 g/ha: 125 g ai/ha, visual rating after approx. 10 d, 0 to 100 scale where 0 is no effect and 100 is complete control; for pest or weed control at 500 g/ha: 500 g ai/ha. In short, it runs like this:
as §1

Test [7] has as its system barnyardgrass (Echinochloa crus-galli). Put plainly: Test A postemergence. The settings on record: Echinochloa crus-galli, post-emergence, 240 h, 125 g ai/ha, postemergence; visual injury after approximately 10 d; 0 to 100 scale (0 no effect, 100 complete control); read-out: Plant response rating, Barnyardgrass. In short, it runs like this:
as §1

Test [8] concerns giant foxtail (Setaria faberii). Put plainly: Test A postemergence. As to conditions: Setaria faberi, post-emergence, 240 h, 125 g ai/ha, postemergence; visual injury after approximately 10 d; 0 to 100 scale (0 no effect, 100 complete control); read-out: Plant response rating, Foxtail, Giant. In outline:
as §1

Test [9] relates to pigweed (Amaranthus retroflexus). Put plainly: Test A postemergence. As to conditions: Amaranthus retroflexus, post-emergence, 240 h, 125 g ai/ha, postemergence; visual injury after approximately 10 d; 0 to 100 scale (0 no effect, 100 complete control); read-out: Plant response rating, Pigweed. In short, it runs like this:
as §1

Test [10] has as its system ryegrass, Italian (Italian ryegrass, Lolium multiflorum). Put plainly: Test A postemergence. The settings on record: Lolium multiflorum, post-emergence, 240 h, 125 g ai/ha, postemergence; visual injury after approximately 10 d; 0 to 100 scale (0 no effect, 100 complete control); read-out: Plant response rating, Ryegrass, Italian. In short, it runs like this: as §1
Test [11] deals with barnyardgrass (Echinochloa crus-galli). Put plainly: Test B flooded paddy test. As to conditions: Echinochloa crus-galli, Flood, 250 g ai/ha; scale of 0 to 100 where 0 is no effect and 100 is complete control; read-out: Barnyardgrass plant response rating. In outline:
(§2)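 Visual ratings (0 none to 100 complete control) are relative to untreated plants, taken 13–15 d after treatment in a greenhouse. Test material went straight into floodwater standing 3 cm above the soil, kept constant, on plants at the 2-leaf stage.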

The subject of test [12] is ducksalad (Heteranthera limosa). Put plainly: Test B flooded paddy test. As to conditions: Heteranthera limosa, Flood, 250 g ai/ha; scale of 0 to 100 where 0 is no effect and 100 is complete control; read-out: Ducksalad plant response rating. In outline:
as §2

Test [13] concerns rice (Oryra sativa). Put plainly: Test B flooded paddy test. As to conditions: Oryza sativa, Flood, 250 g ai/ha; scale of 0 to 100 where 0 is no effect and 100 is complete control; read-out: Rice plant response rating. In short, it runs like this:
as §2

For test [14], the system named is sedge, umbrella (small-flower umbrella sedge, Cyperus difformis). Nature of the test: Test B flooded paddy test. As to conditions: Cyperus difformis, Flood, 250 g ai/ha; scale of 0 to 100 where 0 is no effect and 100 is complete control; read-out: Sedge, Umbrella plant response rating. In outline: as §2
Setting [15] is: preemergence, read-out: Plant response rating, Kochia.
[16] abbreviates: preemergence, read-out: Plant response rating, Barnyardgrass.
The mark [17] stands for this setting: preemergence, read-out: Plant response rating, Foxtail, Giant.
Setting [18] is: preemergence, read-out: Plant response rating, Pigweed.
Where [19] appears, read: preemergence, read-out: Plant response rating, Ragweed.
Where [20] appears, read: preemergence, read-out: Plant response rating, Ryegrass, Italian.

As to `CN1C[C@H](c2cccc([N+](=O)[O-])c2)[C@@H](C(=O)Nc2cccc(F)c2F)C1=O` (racemic) [Compound 776], the pest or weed control at 125 g/ha came to 50% in test [1] (setting [15]); 90% in test [2] (setting [16]); 90% in [3] (setting [17]); 30% in test [4] (setting [18]); 30% in test [5] (setting [19]); 20% in test [6] (setting [20]). Moreover, the pest or weed control at 125 g/ha was 80% in test [7], 80% in test [8], 0% in test [9] and 20% in test [10]. Also, the pest or weed control at 500 g/ha in test [1] (Preemergence, visual injury vs untreated controls after approximately 10 d, read-out: Kochia plant response rating (0 to 100 scale where 0 is no effect and 100 is complete control)) was 60%; in test [2] (Preemergence, visual injury vs untreated controls after approximately 10 d, read-out: Barnyardgrass plant response rating (0 to 100 scale where 0 is no effect and 100 is complete control)), 90%; in test [3] (Preemergence, visual injury vs untreated controls after approximately 10 d, read-out: Foxtail, Giant plant response rating (0 to 100 scale where 0 is no effect and 100 is complete control)), 100%; in test [4] (Preemergence, visual injury vs untreated controls after approximately 10 d, read-out: Pigweed plant response rating (0 to 100 scale where 0 is no effect and 100 is complete control)), 60%; in test [5] (Preemergence, visual injury vs untreated controls after approximately 10 d, read-out: Ragweed plant response rating (0 to 100 scale where 0 is no effect and 100 is complete control)) it was 80%; in test [6] (Preemergence, visual injury vs untreated controls after approximately 10 d, read-out: Ryegrass, Italian plant response rating (0 to 100 scale where 0 is no effect and 100 is complete control)), 50%. Also, the pest or weed control at 250 g/ha in test [11] was 80%; in [12] it was 80%; in test [13], 0%; in test [14] it was 0%.

Take `CN1C[C@H](c2ccc3c(c2)CCC3)[C@@H](C(=O)Nc2cccc(F)c2F)C1=O` [Compound 743]: the pest or weed control at 125 g/ha in [1] (setting [15]) turned out to be 60%; in [2] (setting [16]), 90%; in test [3] (setting [17]), 90%; in test [4] (setting [18]) it was 0%; in test [5] (setting [19]), 0%; in test [6] (setting [20]) it was 90%. For the same molecule, the pest or weed control at 125 g/ha in [7] is 90%; in [8], 90%; in [9], 0%; in test [10], 40%. Also, the pest or weed control at 500 g/ha in [1] (preemergence, 0 to 100 scale, 0 = no effect, 100 = complete control, read-out: Plant response rating, Kochia) is 80%; in test [2] (preemergence, 0 to 100 scale, 0 = no effect, 100 = complete control, read-out: Plant response rating, Barnyardgrass), 90%; in test [3] (preemergence, 0 to 100 scale, 0 = no effect, 100 = complete control, read-out: Plant response rating, Foxtail, Giant), 90%; in test [4] (preemergence, 0 to 100 scale, 0 = no effect, 100 = complete control, read-out: Plant response rating, Pigweed) it was 20%; in test [5] (preemergence, 0 to 100 scale, 0 = no effect, 100 = complete control, read-out: Plant response rating, Ragweed), 40%; in [6] (preemergence, 0 to 100 scale, 0 = no effect, 100 = complete control, read-out: Plant response rating, Ryegrass, Italian) it was 90%. The pest or weed control at 250 g/ha in test [11] is 65%; in test [12], 95%; in test [13] it was 20%; in test [14], 0%.
